In patent US7247653B2, “Pharmaceutical composition” (Takeda Pharmaceutical Company Limited, priority 2000, dated 2007):
Converted amounts (≈) assume the structure as drawn.

What was measured:
Assay type in all cases: physicochemical
[1] = Solubility of compound 72 in aqueous maltosyl-β-cyclodextrin, HPLC method (Experimental Example 9); settings: 25° C., 3 hr shaking
Description: An aqueous solution of maltosyl-β-cyclodextrin (hereinafter abbreviated as G2-β-CyD) at a concentration shown in Table 18 was added to compound 72 (100 mg) and the mixture was shaken at 25° C. for 3 hr. The solution was filtrated through a 0.45 μm filter, and the solubility of compound 72 was quantitatively determined by HPLC method.

[2] = Solubilizing effect of solubilizer on compound 72 (Comparative Example 1): stepwise solvent addition, sonication and vortex mixing
Description: Solubilizing Effect of Solubilizer on Compound 72
The solvent (1 ml) shown in Table 6 was added to compound 72 (5 mg), and solubility was confirmed after sonication and vortex mixing. When not dissolved, the solvent (1 ml) was further added, and solubility was confirmed after sonication and vortex mixing in the same manner. The concentration at the time of dissolution was taken as solubility.

[3] = Solubility of compound 72 in polyoxyethylene glycerol triricinoleate 35/ethanol solution (Experimental Example 1); settings: compound 72 (5 mg) in 50 μl polyoxyethylene glycerol triricinoleate 35/ethanol (w/w): 20/80 (Formulation 1), 65/35 (2), 100/0 (3)
Description: Polyoxyethylene glycerol triricinoleate 35/ethanol solution (50 μl) at a ratio (weight ratio) shown in Table 7 was added to compound 72 (5 mg), the mixture was stirred and the solubility was confirmed. The compound 72 dissolved at any mixing ratio, affording a clear solution.

[4] = Solubility of compound 72 in 40% aqueous 2-hydroxypropyl-β-cyclodextrin (Experimental Example 8); settings: HP-β-CyD concentration 40% aqueous solution
Description: 40% Aqueous solution of 2-hydroxypropyl-β-cyclodextrin (hereinafter abbreviated as HP-β-CyD) (1 ml) was added to compound 72 (5 mg), and the solubility was confirmed by sonication and vortex mixing. When not dissolved, 40% HP-β-CyD solution (1 ml) was further added, and solubility was confirmed after sonication and vortex mixing in the same manner. The concentration at the time of dissolution was taken as solubility.

[5] = Solubility of compound 72 in polyoxyethylene hydrogenated castor oil 50/ethanol solution (Experimental Example 4)
Description: Polyoxyethylene hydrogenated castor oil 50/ethanol solution (50 μl) at a ratio (weight ratio) shown in Table 11 was added to compound 72 (5 mg), the mixture was stirred and the solubility was confirmed. The compound 72 dissolved at any mixing ratio, affording a clear solution.

## CCOC(=O)C1=CCCCC1S(=O)(=O)Nc1ccc(F)cc1Cl (stereo not drawn) [compound 72, d-ethyl 6-[N-(2-chloro-4-fluorophenyl)sulfamoyl]-1-cyclohexene-1-carboxylate]
[1]; G2-β-CyD concentration 10%
  Solubility: 4900 µg/mL (≈ 13.5 mM)
[1]; G2-β-CyD concentration 20%
  Solubility: 13000 µg/mL (≈ 35.9 mM)
[1]; G2-β-CyD concentration 40%
  Solubility: 31700 µg/mL (≈ 87.6 mM)
[2]; solvent 10% Pluronic F68 (polyoxyethylene(160)polyoxypropylene(30)glycol), lower concentrations not examined
  Solubility: Not more than 0.5 mg/ml
[2]; solvent 10% ethanol, lower concentrations not examined
  Solubility: Not more than 0.5 mg/ml
[2]; solvent 10% nicotinamide, lower concentrations not examined
  Solubility: Not more than 0.5 mg/ml
[2]; solvent 10% sodium desoxycholate
  Solubility: about 0.7 mg/ml
[2]; solvent 10% sodium salicylate, lower concentrations not examined
  Solubility: Not more than 0.5 mg/ml
[2]; solvent water
  Solubility: 13 µg/mL (≈ 0.0359 mM)
[3]
  Solubility: not less than 100 mg/ml
[4]
  Solubility (mg/ml): About 1.7 mg/ml
[5]; compound 72 (5 mg) in 50 μl polyoxyethylene hydrogenated castor oil 50/ethanol (w/w) 20/80
  Solubility: Not less than 100 mg/ml
[5]; compound 72 (5 mg) in 50 μl polyoxyethylene hydrogenated castor oil 50/ethanol (w/w) 65/35
  Solubility: Not less than 100 mg/ml
[5]; polyoxyethylene hydrogenated castor oil 50/ethanol, any mixing ratio of Table 11
  solubility of compound 72 in the solvent used: not less than 100 mg/ml
